What was measured:
[1] = system: Human Mammary Epithelial Cells (HMEC); assay: Cell viability (CellTiter-Glo) after mRNA transfection, HMEC; type: cell-based; details: HMEC, 0, 3 and 9 ng mRNA per 1000 cells, 48 hours transfection
Method: (§1) The synthetic mRNA produced in Example 1 is transfected in cancer cells using the Lipofectamine MessengerMAX™ Transfection Reagent.
(§2) Human Mammary Epithelial Cells (HMEC), which are non-cancer cells were compared to MCF7 cancer cells. The HMEC cells and MCF7 cancer cells were transfected for 48 hours with 0, 0.3, 1, 3 and 9 ng of KEAP1 mRNA, or a control cLUC mRNA, per 1000 cells and their respective survival were compared. The cells viability was measured using the CellTiter-Glo® assay from Promega®. […] Now referring to FIG. 4, cell viability of MCF7 cells was affected by KEAP1 mRNA, but the viability of the HMEC cells was unaffected by KEAP1 mRNA.

[2] = system: MCF7 human breast adenocarcinoma cell line; assay: Cell viability (CellTiter-Glo) after mRNA transfection, MCF7; type: cell-based
Method: (§3) The goal of these experiments is to evaluate the transfectability of various cell lines, as well as evaluate the role of KEAP1 as a tumor cells sensitizer, evaluate its role in decreasing the viability of tumor cells. The synthetic mRNA produced in Example 1, or the cLUC mRNA are transfected in cancer cells using the Lipofectamine MessengerMAX™ Transfection Reagent, ThermoFisher™, Cat No: LMRNA001. 0, 0.3, 1, 3 or 9 ng of either mRNA is used per 1000 cells.
(§4) MCF7 and MCF7/MDR human breast adenocarcinoma cell lines are transfected for 48 hours with 0, 0.3, 1, 3 and 9 ng of KEAP1 mRNA, or with 0, 0.3, 1, 3 and 9 ng of a control Cypridina luciferase (cLUC) (SEQ ID NO: 10) mRNA. The cells viability was measured using the CellTiter-Glo® assay from Promega®. KEAP1 mRNA specific effects on MCF7 and MCF7/MDR cells survival were observed when cells were transfected with 0, 0.3, 1, 3 and 9 ng of KEAP1 mRNA.
(§5) MCF7 and MCF7/MDR human breast adenocarcinoma cell lines are transfected for 48 hours with 0, 1 and 3 ng of KEAP1 mRNA, or with 0, 1 and 3 ng of a control Cypridina luciferase (cLUC) mRNA, per 1000 cells. The cells viability was measured using the CellTiter-Glo® assay from Promega®. In-cell Western analysis is used to detect the presence of KEAP1.
as §2

OVCAR3 epithelial cells = assay: Cell viability (CellTiter-Glo) after mRNA transfection, OVCAR3; type: cell-based, human
Method: as §1
(§6) OVCAR3 epithelial cells isolated from malignant ascites of a patient with progressive adenocarcinoma of the ovary, and SUIT2 human pancreatic cancer cell lines are transfected for […] with 0, 0.3, 1, 3 and 9 ng of KEAP1 mRNA, or with 0, 0.3, 1, 3 and 9 ng of a control Cypridina luciferase (cLUC)(SEQ ID NO: 10) mRNA, per 1000 cells. The cells viability was measured using the CellTiter-Glo® assay from Promega®. In-cell Western analysis is used to detect the presence of KEAP1.

[3] = system: MCF7/MDR human breast adenocarcinoma cell line; assay: Cell viability (CellTiter-Glo) after mRNA transfection, MCF7/MDR; type: cell-based; details: for % Cell survival: MCF7/MDR, 48 hours transfection (Example 3)
Method: as §3, §4, §5

[4] = system: SUIT2 human pancreatic cancer cell line; assay: Cell viability (CellTiter-Glo) after mRNA transfection, SUIT2; type: cell-based; details: SUIT2, 0, 3 and 9 ng mRNA per 1000 cells
Method: as §1, §6

Substance: cLUC mRNA: control Cypridina luciferase (cLUC) (SEQ ID NO: 10) mRNA
- % Cell survival [1]: Resistant
- effect on cell survival / viability ([2]; MCF7, 0, 0.3, 1, 3 and 9 ng mRNA per 1000 cells, 48 hours (FIG. 2)): little effect on cell survival unless a large amount of 9 ng was transfected
- % Cell survival ([2]; MCF7, 1 ng mRNA per 1000 cells, 48 hours transfection (Example 3)): 100%
- % Cell survival ([2]; MCF7, 3 ng mRNA per 1000 cells, 48 hours transfection (Example 3)): 55%
- % Cell survival ([2]; MCF7, 3 ng mRNA per 1000 cells, 48 hours transfection (Example 4, Table 2)): 100%
- % Cell survival ([2]; MCF7, 9 ng mRNA per 1000 cells, 48 hours transfection (Example 4, Table 2)): 55%
- % Cell survival (OVCAR3 epithelial cells; OVCAR3, 3 ng mRNA per 1000 cells): 90%
- % Cell survival (OVCAR3 epithelial cells; OVCAR3, 9 ng mRNA per 1000 cells): 80%
- effect on cell survival / viability ([3]; MCF7/MDR, 0, 0.3, 1, 3 and 9 ng mRNA per 1000 cells, 48 hours (FIG. 2)): little effect on cell survival unless a large amount of 9 ng was transfected
- % Cell survival ([3]; 1 ng mRNA per 1000 cells): 100%
- % Cell survival ([3]; 3 ng mRNA per 1000 cells): 55%
- % Cell survival [4]: Resistant

— patent US20250276036A1, “COMPOSITION FOR THE INHIBITION OF NRF2 AND USES THEREOF IN CANCER THERAPY” (Sunshine Biopharma Inc., priority 2022, published 2025)
